Reference: US20220009910A1, “TYROSINE KINASE 2 INHIBITORS, PREPARATION METHODS AND MEDICINAL USES THEREOF” (Eternity Bioscience Inc., priority 2020, published 2022)

How the values were obtained:
Tyk2 JH2 Pseudokinase = molecular target: T1, Tyk2 JH2 Pseudokinase (Homo sapiens, UniProt P29597); assay: KdELECT Competition Binding Assay; settings: 11-point 3-fold dilution series, qPCR readout
T1 construct: purchased Eurofins DiscoverX Corporation (CRO); host or cells: E. coli BL21-derived (T7 phage) or HEK-293
Experimental: The KdELECT Competition Binding Assay is performed by a CRO, Eurofins DiscoverX Corporation following the established standard protocol (DiscoverX, San Diego, Calif.). Briefly, Kinase-tagged T7 phage strains were prepared in an E. coli host derived from the BL21 strain. E. coli were grown to log-phase and infected with T7 phage and incubated with shaking at 32° C. until lysis. The lysates were centrifuged and filtered to remove cell debris. The remaining kinases were produced in HEK-293 cells and subsequently tagged with DNA for qPCR detection. Streptavidin-coated magnetic beads were treated with biotinylated small molecule ligands for 30 minutes at room temperature to generate affinity resins for kinase assays. The liganded beads were blocked with excess biotin and washed with blocking buffer (SeaBlock (Pierce), 1% BSA, 0.05% Tween 20, 1 mM DTT) to remove unbound ligand and to reduce nonspecific binding. Binding reactions were assembled by combining kinases, liganded affinity beads, and test compounds in 1× binding buffer (20% SeaBlock, 0.17×PBS, 0.05% Tween 20, 6 mM DTT). Test compounds were prepared as 111-fold stocks in 100% DMSO. Kds were determined using an 11-point 3-fold compound dilution series with three DMSO control points. All compounds for Kd measurements are distributed by acoustic transfer (non-contact dispensing) in 100% DMSO. The compounds were then diluted directly into the assays such that the final concentration of DMSO was 0.9%. All reactions performed in polypropylene 384-well plate. Each was a final volume of 0.02 mL. The assay plates were incubated at room temperature with shaking for 1 hour and the affinity beads were washed with wash buffer (1×PBS, 0.05% Tween 20). The beads were then re-suspended in elution buffer (1×PBS, 0.05% Tween 20, 0.5 μM non-biotinylated affinity ligand) and incubated at room temperature with shaking for 30 minutes. The kinase concentration in the eluates was measured by quantitative PCR.
Compound Handling: An 11-point 3-fold serial dilution of each test compound was prepared in 100% DMSO at 100-fold final test concentration and subsequently diluted to 1-fold in the assay (final DMSO concentration=1%). Most Kds were determined using a compound top concentration=30,000 nM. If the initial Kd determined was <0.5 nM (the lowest concentration tested), the measurement was repeated with a serial dilution starting at a lower top concentration.

[1] = test system: Tyk2-mediated, IL23-induced STAT3 phosphorylation in human Kit225 T cell line; assay: IL-23_Kit225 T Cell Assay (phosphorylated-STAT3, AlphaLISA); assay type: cell-based; settings: Kit225 cells, compound 1 hour, human recombinant IL-23 20 minutes, pSTAT3
Experimental: (§1) Kit225 cells (licensed from Professor Toshiyuki Hori, Ritsumeikan University, Japan) were seeded in 384-well plate at a density of 1×10^5 cells/well in 4 μL Hank's Balanced Salt Solution (HBSS, Gibco), and incubated for 2 hours in a humidified, 5% CO2 cell culture incubator at 37° C. The cells were treated with serial diluted compounds for 1 hour and stimulated with human recombinant IL-23 (R&D Systems) for 20 minutes. The treated cells were then lysed and cellular phosphorylated-STAT3 levels were measured by AlphaLISA (PerkinElmer) according to the manufacture's instructions. Inhibition data were calculated by comparison to vehicle control wells for 0% inhibition and non-stimulated control wells for 100% inhibition. Dose response curves were then generated to determine the concentration required to suppress 50% of cellular response (IC50) as derived by non-linear regression analysis using GraphPad Prism.

[2] = test system: Tyk2-mediated, IFNα-induced STAT1 phosphorylation in human Kit225 T cell line; assay: IFNα_Kit225 T Cell Assay (phosphorylated-STAT1, AlphaLISA); assay type: cell-based; settings: Kit225 cells, compound 1 hour, human recombinant IFNα 20 minutes, pSTAT1; read-out: IFN-α Kit225 (IC50)
Experimental: as §1, with “cells” for “cells (licensed from Professor Toshiyuki Hori, Ritsumeikan University, Japan)”, “0.5×10^5” for “1×10^5”, “HBSS,” for “Hank's Balanced Salt Solution (HBSS, Gibco),”, “IFNα (Biolegend)” for “IL-23 (R&D Systems)”, “phosphorylated-STAT1” for “phosphorylated-STAT3”, “manufacturer's” for “manufacture's”

[3] = test system: IL-12/IL-23 and Type I IFN pathways; settings: Tokarski et al. 2015; cited from earlier work
[4] = test system: experimental autoimmune disease models (psoriasis, SLE, and IBD); settings: cited from earlier work

T1 sequence (P29597 589-875 limits assumed): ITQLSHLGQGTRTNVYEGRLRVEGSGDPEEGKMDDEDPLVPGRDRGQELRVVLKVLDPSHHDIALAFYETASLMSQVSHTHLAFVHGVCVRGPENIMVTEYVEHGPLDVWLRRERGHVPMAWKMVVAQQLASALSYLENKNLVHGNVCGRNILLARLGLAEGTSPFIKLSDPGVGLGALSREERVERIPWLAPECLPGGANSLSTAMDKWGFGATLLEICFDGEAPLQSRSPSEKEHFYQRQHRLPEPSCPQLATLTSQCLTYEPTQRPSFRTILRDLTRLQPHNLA

Question: Which Kd (Tyk2 JH2 Pseudokinase) does the source give for `[2H]C([2H])([2H])NC(=O)c1nnc(NC(=O)C2CC2)cc1Nc1cc(N2CCC2=O)cc(-c2ncn(C)n2)c1OC` [Example A3, 6-(cyclopropanecarboxamido)-4-((2-methoxy-3-(1-methyl-1H-1,2,4-triazol-3-yl)-5-(2-oxoazetidin-1-yl)phenyl)amino)-N-(methyl-d3)pyridazine-3-carboxamide] here?
Answer: 0.0071 nM

Question: And the IC50 [1]?
Answer: 9.7 nM

Question: What about the IC50 [2] of the same compound?
Answer: 7.5 nM

Question: For BMS986165, which “block of IL-12/IL-23 and Type I IFN pathways” value [3] is on record?
Answer: effectively block

Question: And the “in vivo efficacy in experimental autoimmune disease models” value [4]?
Answer: substantial in vivo efficacy

Question: Which Kd (Tyk2 JH2 Pseudokinase) does the source give for `[2H]C([2H])([2H])NC(=O)c1nnc(NC(=O)C2CC2)cc1Nc1cc(OC2COC2)cc(-c2ncn(C)n2)c1OC` [Example A4, 6-(cyclopropanecarboxamido)-4-((2-methoxy-3-(1-methyl-1H-1,2,4-triazol-3-yl)-5-(oxetan-3-yloxy)phenyl)amino)-N-(methyl-d3)pyridazine-3-carboxamide] here?
Answer: 0.037 nM

Question: And the IC50 [1]?
Answer: 130 nM

Question: What about the IC50 [2] of the same compound?
Answer: 410 nM

Question: What does the source list for `[2H]C([2H])([2H])NC(=O)c1nnc(NC(=O)C2CC2)cc1Nc1cc(N2CC(OC)C2)cc(-c2ncn(C)n2)c1OC` [Example A1, 6-(cyclopropanecarboxamido)-4-((2-methoxy-5-(3-methoxyazetidin-1-yl)-3-(1-methyl-1H-1,2,4-triazol-3-yl)phenyl)amino)-N-(methyl-d3)pyridazine-3-carboxamide]?
Answer: Kd (Tyk2 JH2 Pseudokinase): 0.0035 nM; IC50 [1]: 57 nM; IC50 [2]: 43 nM

Question: For `CNC(=O)c1nnc(NC(=O)C2CC2)cc1Nc1cc(N2CC(OC)C2)cc(-c2ncn(C)n2)c1OC` [Example A2, 6-(cyclopropanecarboxamido)-4-((2-methoxy-5-(3-methoxyazetidin-1-yl)-3-(1-methyl-1H-1,2,4-triazol-3-yl)phenyl)amino)-N-methylpyridazine-3-carboxamide], which Kd (Tyk2 JH2 Pseudokinase) is on record?
Answer: 0.004 nM

Question: And the IC50 [1]?
Answer: 88 nM

Question: And the IC50 [2]?
Answer: 50 nM
